Results: ChEMBL document CHEMBL3272085, “Quantitative structure-activity relationships. 2. A mixed approach, based on Hansch and Free-Wilson Analysis” (1976)

Test system: Staphylococcus aureus
Experiment: Antimicrobial activity against Staphylococcus aureus
Type: functional

| SMILES | log(1/C) |
| --- | --- |
| CCCCCCCCCCCCCCCCCC[N+](C)(C)Cc1ccccc1 | 3.34 |
| CCCCCCCCCC[N+](C)(C)Cc1ccccc1 | 2.79 |
| CCCCCCCCCCCC[N+](C)(C)Cc1ccc(Cl)cc1 | 4.04 |
| CCCCCCCC[N+](C)(C)Cc1ccccc1Cl | 2.02 |
| CCCCCCCCCC[N+](C)(C)Cc1ccccc1Cl | 3.41 |
| CCCCCCCCCCCC[N+](C)(C)Cc1ccccc1Cl | 4.14 |
| CCCCCCCCCCCCCC[N+](C)(C)Cc1ccccc1Cl | 4.14 |
| CCCCCCCCCCCCCCCC[N+](C)(C)Cc1ccccc1Cl | 3.74 |
| CCCCCCCCCCCCCCCCCC[N+](C)(C)Cc1ccccc1Cl | 3.43 |
| CCCCCCCC[N+](C)(C)Cc1ccc(Cl)cc1 | 2.6 |
| CCCCCCCCCC[N+](C)(C)Cc1ccc(Cl)cc1 | 3.6 |
| CCCCCCCCCCCCCC[N+](C)(C)Cc1ccc(Cl)cc1 | 4.34 |
| CCCCCCCCCCCCCCCC[N+](C)(C)Cc1ccc(Cl)cc1 | 3.85 |
| CCCCCCCCCCCCCCCCCC[N+](C)(C)Cc1ccc(Cl)cc1 | 3.17 |
| CCCCCCCC[N+](C)(C)Cc1ccc([N+](=O)[O-])cc1 | 2.11 |
| CCCCCCCCCC[N+](C)(C)Cc1ccc([N+](=O)[O-])cc1 | 3.11 |
| CCCCCCCCCCCC[N+](C)(C)Cc1ccc([N+](=O)[O-])cc1 | 4.2 |
| CCCCCCCCCCCCCC[N+](C)(C)Cc1ccc([N+](=O)[O-])cc1 | 4.23 |
| CCCCCCCCCCCCCCCC[N+](C)(C)Cc1ccc([N+](=O)[O-])cc1 | 4 |
| CCCCCCCCCCCCCCCCCC[N+](C)(C)Cc1ccc([N+](=O)[O-])cc1 | 3.46 |
| CCCCCCCC[N+](C)(C)Cc1ccc(Cl)cc1Cl | 2.63 |
| CCCCCCCCCC[N+](C)(C)Cc1ccc(Cl)cc1Cl | 3.65 |
| CCCCCCCCCCCC[N+](C)(C)Cc1ccc(Cl)cc1Cl | 4.25 |

| SMILES | log(1/C) |
| --- | --- |
| CCCCCCCCCCCCCC[N+](C)(C)Cc1ccc(Cl)cc1Cl | 4.28 |
| CCCCCCCCCCCCCCCC[N+](C)(C)Cc1ccc(Cl)cc1Cl | 3.41 |
| CCCCCCCCCCCCCCCCCC[N+](C)(C)Cc1ccc(Cl)cc1Cl | 3.3 |
| CCCCCCCC[N+](C)(C)Cc1ccc(Cl)c(Cl)c1 | 2.92 |
| CCCCCCCCCC[N+](C)(C)Cc1ccc(Cl)c(Cl)c1 | 3.79 |
| CCCCCCCCCCCC[N+](C)(C)Cc1ccc(Cl)c(Cl)c1 | 4.36 |
| CCCCCCCCCCCCCC[N+](C)(C)Cc1ccc(Cl)c(Cl)c1 | 4.04 |
| CCCCCCCCCCCCCCCC[N+](C)(C)Cc1ccc(Cl)c(Cl)c1 | 3.39 |
| CCCCCCCCCCCCCCCCCC[N+](C)(C)Cc1ccc(Cl)c(Cl)c1 | 3.11 |
| CCCCCCCCCCCC[N+](C)(C)Cc1ccc(OC)c(OC)c1 | 3.71 |
| CCCCCCCCCCCCCC[N+](C)(C)Cc1ccc(OC)c(OC)c1 | 4.11 |
| CCCCCCCCCCCCCCCC[N+](C)(C)Cc1ccc(OC)c(OC)c1 | 3.41 |
| CCCCCCCC[N+](C)(C)Cc1ccc2c(c1)OCO2 | 2.04 |
| CCCCCCCCCC[N+](C)(C)Cc1ccc2c(c1)OCO2 | 3.08 |
| CCCCCCCCCCCC[N+](C)(C)Cc1ccc2c(c1)OCO2 | 4 |
| CCCCCCCCCCCCCC[N+](C)(C)Cc1ccc2c(c1)OCO2 | 4.23 |
| CCCCCCCCCCCCCCCC[N+](C)(C)Cc1ccc2c(c1)OCO2 | 4.2 |
| CCCCCCCCCCCCCCCCCC[N+](C)(C)Cc1ccc2c(c1)OCO2 | 3.23 |
| CCCCCCCCCCCC[N+](C)(C)Cc1cc([N+](=O)[O-])ccc1O | 2.7 |
| CCCCCCCCCCCC[N+](C)(C)Cc1ccccc1 [BENZODODECINIUM] | 3.74 |
| CCCCCCCCCCCCCCCC[N+](C)(C)Cc1ccccc1 [CETALKONIUM] | 3.92 |
| CCCCCCCCCCCCCC[N+](C)(C)Cc1ccccc1 [MIRISTALKONIUM ION] | 4.17 |

Test system: Aspergillus niger
Experiment: Antimicrobial activity against Aspergillus niger
Type: functional

| SMILES | log(1/C) |
| --- | --- |
| Oc1ccccc1C1CCCCC1 | 4 |
| Cc1ccc(C(C)(C)C)c(O)c1 | 3.7 |
| Cc1cc(C)cc(O)c1 | 3.26 |
| Cc1cc(Cl)ccc1O | 3.7 |
| CC(C)c1ccccc1O | 3.35 |
| Cc1cccc(C)c1O | 3.35 |
| Cc1cc(Cl)cc(C)c1O | 4.4 |
| CC(C)c1cc(Cl)ccc1O | 4.3 |
| Cc1cc(O)c(C(C)(C)C)cc1Cl | 4.3 |
| Oc1ccc(Cl)cc1C1CCCCC1 | 4.4 |
| Oc1ccc(Cl)cc1-c1ccccc1 | 4.52 |
| Oc1ccccc1-c1ccccc1 [2-PHENYLPHENOL] | 4.1 |
| Cc1cc(O)ccc1Cl [CHLOROCRESOL] | 3.7 |
| Cc1cc(O)cc(C)c1Cl [CHLOROXYLENOL] | 4.22 |
| Cc1cccc(O)c1 [METACRESOL] | 2.68 |
| Cc1ccccc1O [ORTHOCRESOL] | 2.7 |

Organism: Rattus norvegicus
Experiment: Thyroxine-like activity in rat by antigoiter assay relative to control
Type: functional

| SMILES | Activity [%] | log(activity) |
| --- | --- | --- |
| Cc1cc(C[C@H](N)C(=O)O)cc(C)c1Oc1ccc(O)c(C(C)C)c1 | 18 | 1.26 |
| CC(C)c1cc(Oc2c(Br)cc(C[C@H](N)C(=O)O)cc2Br)ccc1O | 450 | 2.65 |
| Cc1cc(C[C@H](N)C(=O)O)cc(I)c1Oc1ccc(O)c(I)c1 | 40 | 1.6 |
| N[C@@H](Cc1cc(I)c(Oc2ccc(O)cc2)c(I)c1)C(=O)O | 10 | 1 |
| N[C@@H](Cc1cc(I)c(Oc2ccc(O)c(O)c2)c(I)c1)C(=O)O | 1.5 | 0.18 |
| N[C@@H](Cc1cc(I)c(Oc2ccc(O)c(F)c2)c(I)c1)C(=O)O | 8 | 0.9 |
| N[C@@H](Cc1cc(I)c(Oc2ccc(O)c(Br)c2)c(I)c1)C(=O)O | 138 | 2.14 |
| Cc1cc(Oc2c(I)cc(C[C@H](N)C(=O)O)cc2I)ccc1O | 126 | 2.1 |
| CCc1cc(Oc2c(I)cc(C[C@H](N)C(=O)O)cc2I)ccc1O | 506 | 2.7 |
| CC(C)c1cc(Oc2c(I)cc(C[C@H](N)C(=O)O)cc2I)ccc1O | 868 | 2.94 |
| CC(C)(C)c1cc(Oc2c(I)cc(C[C@H](N)C(=O)O)cc2I)ccc1O | 120 | 2.08 |
| CC(C)Cc1cc(Oc2c(I)cc(C[C@H](N)C(=O)O)cc2I)ccc1O | 60 | 1.78 |
| N[C@@H](Cc1cc(I)c(Oc2ccc(O)c(-c3ccccc3)c2)c(I)c1)C(=O)O | 32 | 1.51 |
| N[C@@H](Cc1cc(I)c(Oc2cc(F)c(O)c(F)c2)c(I)c1)C(=O)O | 1.8 | 0.26 |
| N[C@@H](Cc1cc(I)c(Oc2cc(Cl)c(O)c(Cl)c2)c(I)c1)C(=O)O | 0.9 | -0.05 |
| N[C@@H](Cc1cc(I)c(Oc2cc(Br)c(O)c(Br)c2)c(I)c1)C(=O)O | 10 | 1 |
| N[C@@H](Cc1cc(I)c(Oc2cc(F)c(O)c(I)c2)c(I)c1)C(=O)O | 28 | 1.45 |
| N[C@@H](Cc1cc(Br)c(Oc2ccc(O)c(Br)c2)c(Br)c1)C(=O)O | 44 | 1.64 |
| N[C@@H](Cc1cc(Br)c(Oc2ccc(O)c(I)c2)c(Br)c1)C(=O)O | 130 | 2.11 |
| N[C@@H](Cc1cc(Br)c(Oc2cc(Br)c(O)c(Br)c2)c(Br)c1)C(=O)O | 0.51 | -0.29 |
| N[C@@H](Cc1cc(Br)c(Oc2cc(I)c(O)c(I)c2)c(Br)c1)C(=O)O | 12.5 | 1.1 |
| Cc1cc(C[C@H](N)C(=O)O)cc(C)c1Oc1ccc(O)c(I)c1 | 5 | 0.7 |
| Cc1cc(Oc2c(C)cc(C[C@H](N)C(=O)O)cc2C)ccc1O | 3 | 0.48 |
| Cc1cc(Oc2c(C)cc(C[C@H](N)C(=O)O)cc2C)cc(C)c1O | 2 | 0.3 |
| N[C@@H](Cc1cc(Cl)c(Oc2cc(I)c(O)c(I)c2)c(Cl)c1)C(=O)O | 0.1 | -1 |
| N[C@@H](Cc1cc(I)c(Oc2ccc(O)c(Cl)c2)c(I)c1)C(=O)O | 27 | 1.43 |
| N[C@@H](Cc1cc(I)c(Oc2cc(I)c(O)c(I)c2)c(I)c1)C(=O)O [LEVOTHYROXINE] | 100 | 2 |
| N[C@@H](Cc1cc(I)c(Oc2ccc(O)c(I)c2)c(I)c1)C(=O)O [LIOTHYRONINE] | 545 | 2.74 |
